pEC50: −log10 of the molar value.
Target: T1, human GR (Homo sapiens, UniProt P04150)
T1 construct: naturally expresses the human GR; endogenous in cells
T1 sequence (P04150 1-777): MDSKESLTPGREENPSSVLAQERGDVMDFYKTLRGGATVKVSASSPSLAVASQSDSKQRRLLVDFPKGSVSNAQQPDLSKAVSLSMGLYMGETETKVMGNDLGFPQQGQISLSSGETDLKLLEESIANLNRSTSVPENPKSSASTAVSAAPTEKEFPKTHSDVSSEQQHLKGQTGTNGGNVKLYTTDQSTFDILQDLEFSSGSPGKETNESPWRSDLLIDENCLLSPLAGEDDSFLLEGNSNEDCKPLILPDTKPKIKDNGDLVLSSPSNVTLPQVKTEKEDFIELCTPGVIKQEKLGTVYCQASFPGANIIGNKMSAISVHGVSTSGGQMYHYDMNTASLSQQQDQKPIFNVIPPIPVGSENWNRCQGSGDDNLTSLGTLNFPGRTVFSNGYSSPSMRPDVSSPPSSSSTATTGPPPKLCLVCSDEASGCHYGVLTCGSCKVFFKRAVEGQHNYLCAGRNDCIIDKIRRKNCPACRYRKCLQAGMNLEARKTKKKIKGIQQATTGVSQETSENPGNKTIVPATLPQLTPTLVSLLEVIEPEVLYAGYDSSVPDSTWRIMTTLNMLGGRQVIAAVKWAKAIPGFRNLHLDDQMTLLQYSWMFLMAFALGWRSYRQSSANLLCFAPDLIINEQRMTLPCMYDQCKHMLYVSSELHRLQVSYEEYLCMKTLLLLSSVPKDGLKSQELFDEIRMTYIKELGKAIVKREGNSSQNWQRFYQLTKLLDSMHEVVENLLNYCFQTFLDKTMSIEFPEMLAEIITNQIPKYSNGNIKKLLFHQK
Test: Trans-Activation Modulation of Glucocorticoid Receptor Assay (GRAMMER), MMTV-LUC reporter in A549 cells
Type: cell-based
Conditions: for Transactivation A549 Cells GRAMMER Emax (%): Emax relative to the activity obtained with 300 nM dexamethasone; for pEC50: inflection point (IP), MMTV-LUC reporter, read-out: Transactivation A549 Cells GRAMMER IP; for Emax: A549, Emax relative to the activity obtained with 300 nM dexamethasone, read-out: Transactivation A549 Cells GRAMMER Emax (%)
Excerpt: This assay assesses the ability of test compounds to control transcription from the MMTV-LUC reporter gene in lung adenocarcinoma A549 cells or HeLa cells, a human […] cell line that naturally expresses the human GR. The assay measures induction of a modified MMTV LTR/promoter linked to the LUC reporter gene.
The routine transient assay consists of plating 7,000-25,000 cells/well of a white, clear-bottom 96-well plate. Alternatively, 384-well plates can be used at a cell concentration of 10,000/well. The media that the cells are plated in is “exponential growth medium” which consists of phenol red-free RPMI1640 containing 10% FBS, 4 mM L-glutamine, 20 mM HEPES, 10 ug/mL human insulin, and 20 ug/mL gentamicin. Incubator conditions are 37° C. and 5% CO2. The transfection is done in batch mode. The cells are trypsinized and counted to the right cell number in the proper amount of fresh media. It is then gently mixed with the FuGene6/DNA mix and plated onto the 96 or 384-well plate, all the wells receive 100 uL or 40 uL, respectively, of medium+lipid/DNA complex then incubated 37° C. overnight. The transfection cocktail consists of serum-free OptiMEM, FuGene6 reagent and DNA. The manufacturer's (Roche Biochemical) protocol for cocktail setup is as follows: The lipid to DNA ratio is approximately 2.5:1 and the incubation time is 20 min at room temperature. Sixteen to 24 hours after transfection, the cells are treated with dexamethasone to a final concentration of 10 nM as well as the compound of interest, such that final DMSO (vehicle) concentration is equal to or less than 1%. Each plate also contains samples that are treated with 10 nM dexamethasone alone, which is used as the 100% activity control. The cells are exposed to the compounds for 24 hours. After 24 hours, the cells are lysed by a Promega cell culture lysis buffer for approximately 30 min and then the luciferase activity in the extracts is assayed in the 96-well format luminometer. In 384-well format, Steady-Glo (Promega) or Steady-Lite (PerkinElmer) can be used by adding an equal volume of reagent to the media present in each well. Activity induced by 10 nM dexamethasone alone is set at 100% activity. Antagonist activity is calculated by determining the decrease in dexamethasone-induced activity in response to compound treatment relative to samples that were treated with dexamethasone alone. Results are expressed as % inhibition of 10 nM dexamethasone activity or as fold of 10 nM dexamethasone activity. This transactivation assay can be performed in an agonist and antagonist mode to identify these different activities.
Activity of test compounds is calculated as the Emax relative to the activity obtained with 300 nM dexamethasone. Activity of test compounds is calculated as the Emax relative to the activity obtained with 300 nM DEX. The exemplified tissue selective glucocorticoid receptor modulators of the present invention display agonist activity in this assay of greater than 5% and less than 100%, and maximal transactivation activity less then maximal transrepression activity. […]

Transactivation A549 Cells GRAMMER Emax (%) | pEC50 | Emax [%] | Structure (SMILES)
24.8 | 6.84 | – | COc1cccnc1C(O)C[C@]1(CO)CCC2=Cc3c(cnn3-c3cccc(F)c3)C[C@@]21C (single isomer, unassigned) [Example 26a]
4.3 | 6.18 | – | COc1cccnc1C(O)C[C@]1(CO)CCC2=Cc3c(cnn3-c3cccc(F)c3)C[C@@]21C (single isomer, unassigned) [Example 26b]
6.8 | 6.45 | – | C[C@]12Cc3cnn(-c4cccc(F)c4)c3C=C1CC[C@@]2(CO)CC(O)c1cccnc1 (single isomer, unassigned) [Example 27a]
15.4 | 6.20 | – | C[C@]12Cc3cnn(-c4cccc(F)c4)c3C=C1CC[C@@]2(CO)CC(O)c1cccnc1 (single isomer, unassigned) [Example 27b]
– | 6.97 | 60.4 | C[C@]12Cc3cnn(-c4ccc(F)cc4)c3C=C1CC[C@@]2(CO)CC(O)C(F)(F)F (single isomer, unassigned) [Example 28a]
42.3 | 6.97 | – | C[C@]12Cc3cnn(-c4ccc(F)cc4)c3C=C1CC[C@@]2(CO)CC(O)C(F)(F)F (single isomer, unassigned) [Example 28b]
30.7 | 6.77 | – | C[C@]12Cc3cnn(-c4ccccc4)c3C=C1CC[C@@]2(CO)CC(O)c1cccnc1 (single isomer, unassigned) [Example 29a]
13.7 | 6.92 | – | C[C@]12Cc3cnn(-c4ccccc4)c3C=C1CC[C@@]2(CO)CC(O)c1cccnc1 (single isomer, unassigned) [Example 29b]

The next lines start with the compound.

Structure (SMILES) | Transactivation A549 Cells GRAMMER Emax (%) | pEC50 | Emax [%]
C[C@]12Cc3cnn(-c4ccc(F)cc4)c3C=C1CC[C@@]2(CO)CC(O)C1CC1 (single isomer, unassigned) [Example 20b, 1-cyclopropyl-2-[(4αS)-1-(4-fluorophenyl)-5-(hydroxymethyl)-4α-methyl-1,4,4α,5,6,7-hexahydrocyclopenta[f]indazol-5-yl]ethanol] | 11.3 | 6.09 | –
COc1cccnc1C(O)C[C@]1(CO)CCC2=Cc3c(cnn3-c3ccc(F)cc3)C[C@@]21C (single isomer, unassigned) [Example 21a] | 32.4 | 6.82 | –
COc1cccnc1C(O)C[C@]1(CO)CCC2=Cc3c(cnn3-c3ccc(F)cc3)C[C@@]21C (single isomer, unassigned) [Example 21b] | 64.8 | 7.40 | –
C[C@]12Cc3cnn(-c4ccc(F)cc4)c3C=C1CC[C@@]2(CO)CC(O)c1ccc(F)cn1 (single isomer, unassigned) [Example 22a] | – | 7.54 | 63.2
C[C@]12Cc3cnn(-c4ccc(F)cc4)c3C=C1CC[C@@]2(CO)CC(O)c1ccc(F)cn1 (single isomer, unassigned) [Example 22b] | 74.3 | 7.19 | –
C[C@]12Cc3cnn(-c4ccccc4)c3C=C1CC[C@@]2(CO)CC(O)c1ccccn1 (single isomer, unassigned) [Example 23a] | – | 7.30 | 39.4
C[C@]12Cc3cnn(-c4ccccc4)c3C=C1CC[C@@]2(CO)CC(O)c1ccccn1 (single isomer, unassigned) [Example 23b] | 47.7 | 7.20 | –
COc1ccc(C(O)C[C@]2(CO)CCC3=Cc4c(cnn4-c4ccc(F)cc4)C[C@@]32C)nc1 (single isomer, unassigned) [Example 24a] | – | 6.33 | 7.6
COc1ccc(C(O)C[C@]2(CO)CCC3=Cc4c(cnn4-c4ccc(F)cc4)C[C@@]32C)nc1 (single isomer, unassigned) [Example 24b] | 4.5 | 6.00 | –
CC(O)(C[C@]1(CO)CCC2=Cc3c(cnn3-c3ccc(F)cc3)C[C@@]21C)c1cccnc1 (single isomer, unassigned) [Example 25a] | – | 6.54 | 7.9
CC(O)(C[C@]1(CO)CCC2=Cc3c(cnn3-c3ccc(F)cc3)C[C@@]21C)c1cccnc1 (single isomer, unassigned) [Example 25b] | 7.6 | 6.40 | –
C[C@]12Cc3cnn(-c4ccc(F)cc4)c3C=C1CC[C@@]2(CO)CC(O)c1ccccc1F (stereo partly drawn) [Example 4, 1-(2-fluorophenyl)-2-[(4αS,5R)-1-(4-fluorophenyl)-5-(hydroxymethyl)-4α-methyl-1,4,4α,5,6,7-hexahydrocyclopenta[f]indazol-5-yl]ethanol] | – | 7.40 | 80.3
C[C@]12Cc3cnn(-c4ccc(F)cc4)c3C=C1CC[C@@]2(CO)CC(O)c1cccc(Cl)c1 (stereo partly drawn) [Example 8, 1-(3-chlorophenyl)-2-[(4αS,5R)-1-(4-fluorophenyl)-5-(hydroxymethyl)-4α-methyl-1,4,4α,5,6,7-hexahydrocyclopenta[f]indazol-5-yl]ethanol] | – | 7.49 | 56
C[C@]12Cc3cnn(-c4ccc(F)cc4)c3C=C1CC[C@@]2(CO)CC(O)c1cc(F)cc(F)c1 (stereo partly drawn) [Example 9, 1-(3,5-difluorophenyl)-2-[(4αS,5R)-1-(4-fluorophenyl)-5-(hydroxymethyl)-4α-methyl-1,4,4α,5,6,7-hexahydrocyclopenta[f]indazol-5-yl]ethanol] | – | 8.49 | 80.3
C[C@]12Cc3cnn(-c4ccc(F)cc4)c3C=C1CC[C@@]2(CO)CC1OC(=O)c2ccccc21 (stereo partly drawn) [Example 11, 3-{[(4αS,5R)-1-(4-fluorophenyl)-5-(hydroxymethyl)-4α-methyl-1,4,4α,5,6,7,7a,8-octahydrocyclopenta[f]indazol-5-yl]methyl}-2-benzofuran-1(3H)-one] | – | 6.48 | 41.8
Cc1ccc(C(O)C[C@]2(CO)CCC3=Cc4c(cnn4-c4ccc(F)cc4)C[C@@]32C)nc1 (stereo partly drawn) [Example 16, 2-[(4αS,5R)-1-(4-fluorophenyl)-5-(hydroxymethyl)-4α-methyl-1,4,4α,5,6,7-hexahydrocyclopenta[f]indazol-5-yl]-1-(5-methylpyridin-2-yl)ethanol] | – | 7.74 | 38.3

— patent US20120095055A1, “HEXAHYDROCYCLOPENTYL[f]INDAZOLE 5-HYDROXYMETHYL ETHANOLS AND DERIVATIVES THEREOF AS SELECTIVE GLUCOCORTICOID RECEPTOR MODULATORS” (Merck Sharp & Dohme, Corp., priority 2009, published 2012)
